Test results as given in US20240374631A1, “A COMPOSITION FOR IMPROVING GUT MICROBIOTA, BEHAVIOURAL PATTERN, ALPHA-SYNUCLEIN LEVELS, SLEEP PATTERN AND/OR SERUM MELATONIN” (GN Corporation Co Ltd, priority 2021, published 2024).

System: gut microbiota
Assay: Gut microbiome analysis (16S rRNA sequencing of fecal samples) in STAM model of NASH
Assay type: in vivo, C57BL/6J mice
Conditions: post-intervention
Text: The study is reported in accordance with Animal Research: Reporting of In Vivo Experiments (ARRIVE) guidelines. C57BL/6J mice were obtained from Japan SLC, Inc. (Japan). All animals used in this study were cared for under the following guidelines: Act on Welfare and Management of Animals (Ministry of the Environment, Japan, Act No. 105 of Oct. 1, 1973), standards relating to the care and management of laboratory animals and relief of pain (Notice No. 88 of the Ministry of the Environment, Japan, Apr. 28, 2006) and the guidelines for proper conduct of animal experiments (Science Council of Japan, Jun. 1, 2006). Protocol approvals were obtained from SMC Laboratories, Japan's IACUC (Study reference no: […] Mice were maintained in a specific pathogen-free (SPF) facility under controlled conditions of temperature (23±3° C.), humidity (50±20%), lighting (12-hour artificial light and dark cycles; light from 8:00 to 20:00) and air exchange. The STAM model of NASH was induced as previously described [D10]. Mice were given a single subcutaneous injection of 200 μg streptozotocin (STZ, Sigma-Aldrich, USA) solution 2 days after birth and fed with a high-fat diet (HFD, 57 kcal % fat, Cat #HFD32, CLEA Japan, Inc., Japan) from 4-9 weeks of age. All mice develop liver steatosis and diabetes and at […] mice had established steatohepatitis, histologically. Studygroups: There were five study groups, described below. Eight mice were included in each study group. Eight NASH mice were orally administered vehicle supplemented with AFO-202 Beta Glucan at a dose of 1 mg/kg in a volume of 5 mL/kg once daily from 6 to 9 weeks of age. Eight NASH mice were orally administered vehicle supplemented with Telmisartan at a dose of 10 mg/kg once daily from 6 to 9 weeks of age. Frequency: Fecal samples were collected at the 6 weeks of age (before administration) and 9 weeks of age (before sacrifice). Procedure: At 6 weeks of age, fecal samples were collected from each mouse by clean catch method. […] A sterile petri dish was placed on the bench. Gently massage the abdomen, position the bottom of mouse over a fresh petri dish, and collect 1-2 fecal pellets. At sacrifice, fecal samples were aseptically collected from cecum. The tubes with feces were placed on ice immediately. These tubes were snap frozen in liquid nitrogen and stored at -80° C. for shipping. In this analysis, the 16S rRNA sequence data acquired by the next-generation sequencer from the fecal […] was used to perform community analysis using the QIIME2 program for microbial community analysis. The raw read data in FASTQ format output from the next-generation sequencer was trimmed to remove adapter sequences and low QV regions that may be included in the data. Cutadapt was used to remove adapter sequences from DNA sequencing reads. Trimmomatic was used as read trimming tool for Illumina NGS data. The adapter sequence was trimmed using the adapter trimming program “cutadapt” if the Trimming of the region at the end of the read sequence overlapped the corresponding sequence by at least one base (mismatch tolerance: 20%). When reads containing N were present in at least one of Read1 and Read2, both Read1 and Read2 were removed. Trimming of low QV regions was performed on the read data after processing using the QV trimming program “Trimmomatic” under the following conditions. The window of 20 bases is slid from the 5' side, and the area where the average QV is less than 20 is trimmed. After trimming, only the reads with more than 50 bases remaining in both Read1 and Read2 were taken as output. The microbial community analysis based on 16S rRNA sequence was performed on the sequence data trimmed in the previous section using the microbial community analysis program “QIIME2”. The annotation program “sklearn” included in QIIME2 is used to annotate the ASV (OTU) sequences. […]

CCCc1nc2c(C)cc(-c3nc4ccccc4n3C)cc2n1Cc1ccc(-c2ccccc2C(=O)O)cc1 [Telmisartan]
Abundance: S24-7, —, — (line r298): 0 | Abundance: Lachnospiraceae, —, — (line r300): 60 | Abundance: Ruminococcaceae, Oscillospira, — (line r301): 30 | Abundance: S24-7, —, — (line r302): 0 | Abundance: —, —, — (line r303): 107 | Abundance: Ruminococcaceae, Oscillospira, — (line r304): 9 | Abundance: Bacteroidaceae, Bacteroides, acidifaciens (line r305): 0 | Abundance: Bacteroidaceae, Bacteroides, acidifaciens (line r306): 11 | Abundance: Lachnospiraceae, Dorea, — (line r307): 8 | Abundance: Ruminococcaceae, Other, Other (line r308): 11 | Abundance: Lachnospiraceae, —, — (line r309): 13 | Abundance: Lachnospiraceae, —, — (line r310): 0 | Abundance: S24-7, —, — (line r311): 1 | Abundance: Lachnospiraceae, Other, Other (line r312): 0 | Abundance: —, —, — (line r313): 0 | Abundance: Ruminococcaceae, Oscillospira, — (line r314): 9 | Abundance: Ruminococcaceae, Oscillospira, — (line r315): 0 | Abundance: Lachnospiraceae, —, — (line r316): 19 | Abundance: Erysipelotrichaceae, —, — (line r317): 0 | Abundance: S24-7, —, — (line r318): 0 | Abundance: Lachnospiraceae, —, — (line r319): 9 | Abundance: Ruminococcaceae, Oscillospira, — (line r320): 0 | Abundance: Lachnospiraceae, —, — (line r321): 14 | Abundance: Other, Other, Other (line r322): 0 | Abundance: F16, —, — (line r323): 0 | Abundance: Christensenellaceae, —, — (line r324): 5 | Abundance: Lachnospiraceae, Other, Other (line r325): 0 | Abundance: Ruminococcaceae, Oscillospira, — (line r326): 0 | Abundance: —, —, — (line r327): 0 | Abundance: Ruminococcaceae, Other, Other (line r328): 0 | Abundance: —, —, — (line r329): 0 | Abundance: Lachnospiraceae, Other, Other (line r330): 0 | Abundance: Other, Other, Other (line r331): 0 | Abundance: Enterococcaceae, Vagococcus, — (line r332): 26 | Abundance: Ruminococcaceae, Ruminococcus, — (line r333): 0 | Abundance: Erysipelotrichaceae, Coprabacillus, — (line r334): 0 | Abundance: Other, Other, Other (line r335): 0 | Abundance: Ruminococcaceae, Oscillospira, — (line r336): 9 | Abundance: Ruminococcaceae, Oscillospira, — (line r337): 0 | Abundance: —, —, — (line r338): 0 | Abundance: Lachnospiraceae, —, — (line r339): 0 | Abundance: Ruminococcaceae, Oscillospira, — (line r340): 31 | Abundance: Lachnospiraceae, Coprococcus, — (line r341): 0 | Abundance: Ruminococcaceae, Other, Other (line r342): 5 | Abundance: —, —, — (line r343): 0 | Abundance: Erysipelotrichaceae, —, — (line r344): 2 | Abundance: Rikenellaceae, —, — (line r345): 11 | Abundance: —, —, — (line r346): 0 | Abundance: —, —, — (line r347): 40 | Abundance: —, —, — (line r348): 0 | Abundance: Lachnospiraceae, —, — (line r349): 0 | Abundance: —, —, — (line r350): 0 | Abundance: Lachnospiraceae, Clostridium, Other (line r351): 28 | Abundance: Erysipelotrichaceae, —, — (line r352): 0 | Abundance: Streptococcaceae, Streptococcus, minor (line r353): 0 | Abundance: Ruminococcaceae, Oscillospira, — (line r354): 0 | Abundance: —, —, — (line r355): 0 | Abundance: Lachnospiraceae, Other, Other (line r356): 0 | Abundance: Other, Other, Other (line r357): 0 | Abundance: —, —, — (line r358): 0 | Abundance: —, —, — (line r359): 0 | Abundance: Lachnospiraceae, —, — (line r362): 12 | Abundance: Streptococcaceae, Streptococcus, — (line r363): 0 | Abundance: S24-7, —, — (line r365): 0 | Abundance: Other, Other, Other (line r367): 42 | Abundance: [Mogibacteriaceae], —, — (line r368): 0 | Abundance: Enterobacteriaceae, Enterobacter, Other (line r369): 0 | Abundance: Erysipelotrichaceae, —, — (line r371): 19 | Abundance: Aerococcaceae, Aerococcus, — (line r372): 39 | Abundance: Ruminococcaceae, Oscillospira, — (line r373): 0 | Abundance: Ruminococcaceae, Oscillospira, — (line r374): 12 | Abundance: Other, Other, Other (line r375): 0 | Abundance: Lachnospiraceae, Coprococcus, — (line r377): 0 | Abundance: Other, Other, Other (line r378): 0 | Abundance: Family Lachnospiraceae, Genus Other, Species Other (table row r380): 0 | Abundance: Family Ruminococcaceae, Genus Oscillospira, Species — (table row r381): 0 | Abundance: Family S24-7, Genus —, Species — (table row r382): 0 | Abundance: Family Ruminococcaceae, Genus Ruminococcus, Species — (table row r383): 0 | Abundance: Family Ruminococcaceae, Genus Oscillospira, Species — (table row r384): 0 | Abundance: Family Ruminococcaceae, Genus Ruminococcus, Species — (table row r389): 0 | Abundance: Family Lachnospiraceae, Genus —, Species — (table row r390): 0 | Abundance: Family Ruminococcaceae, Genus Oscillospira, Species — (table row r391): 0 | Abundance: Family Corynebacteriaceae, Genus Corynebacterium, Species stationis (table row r394): 0 | Abundance: Family Ruminococcaceae, Genus Other, Species Other (table row r395): 0 | Abundance: Family S24-7, Genus —, Species — (table row r396): 13 | Abundance: Family Ruminococcaceae, Genus Oscillospira, Species — (table row r397): 26 | Abundance: Family Ruminococcaceae, Genus Oscillospira, Species — (table row r398): 0 | Abundance: Family Ruminococcaceae, Genus Ruminococcus, Species — (table row r399): 0 | Abundance: Family [Mogibacteriaceae], Genus —, Species — (table row r400): 0 | Abundance: Family Erysipelotrichaceae, Genus Coprobacillus, Species — (table row r401): 0 | Abundance: Family Erysipelotrichaceae, Genus Clostridium, Species cocleatum (table row r402): 1 | Abundance: Family S24-7, Genus —, Species — (table row r403): 0 | Abundance: Family Coriobacteriaceae, Genus —, Species — (table row r404): 0 | Abundance: Family Coriobacteriaceae, Genus Adlercreutzia, Species — (table row r405): 0 | Abundance: Family Enterococcaceae, Genus Vagococcus, Species — (table row r407): 0 | Abundance: Family [Mogibacteriaceae], Genus —, Species — (table row r409): 6 | Abundance: Family S24-7, Genus —, Species — (table row r413): 11 | Abundance: Family Ruminococcaceae, Genus Oscillospira, Species — (table row r414): 0 | Abundance: Family Planococcaceae, Genus Sporosarcina, Species — (table row r415): 0 | Abundance: Family Erysipelotrichaceae, Genus Other, Species Other (table row r417): 0 | Abundance: Family Ruminococcaceae, Genus Ruminococcus, Species — (table row r419): 0 | Abundance: Family Coriobacteriaceae, Genus Adlercreutzia, Species — (table row r423): 0 | Abundance: Family Other, Genus Other, Species Other (table row r424): 0 | Abundance: Family Ruminococcaceae, Genus Other, Species Other (table row r425): 0
